One data set can be described thus: in vitro. The following applies: human, Caco-2.
Data set [1] in a line: Intra-nasal administration of salmon calcitonin (sCT) with or without AT1002, plasma sCT by LC-MS. The settings on record: for Tmax: 15 mg/kg. In kind it is in vivo, Sprague-Dawley rats. The method, then:
Jugular cannulated Sprague-Dawley rats randomly received formulations of salmon calcitonin. The formulations administered intra-nasally to rats were dextrose solution of sCT (15 mg/kg) with or without various doses of AT1002 (2, 5, and 10 mg/kg). Doses were then slowly administered intra-nasally with a volume dose of 400 μl kg rat. Blood samples were drawn via the jugular cannula at each time point, and were deproteinized by the addition of acetonitrile. The concentration of sCT in the plasma was determined by LC-MS.

Data set [2] in a line: Intranasal administration of [14C] PEG4000 or [14C] inulin with/without AT1002, plasma concentration. In kind it is in vivo, Sprague-Dawley rats. The following applies: inulin with AT1002 10 mg/kg, p<0.05. From the text:
Male Sprague-Dawley rats cannulated in the jugular vein were randomly assigned to receive radiolabelled paracellular markers, [^14C] PEG4000 or [^14C] inulin, with/without AT1002, for each intranasal study.

Data set [3] in a line: Intranasal administration of [3H]-AZT or [3H]-saquinavir with AT1002, uptake into blood plasma.
Procedure: Blood samples (250 μl) were drawn into heparinized syringes at 10 or 15 min into polypropylene tubes, centrifuged (13,000 rpm for 10 min) immediately and plasma was obtained. Scintillation cocktail was added and samples were analyzed for radioactivity by Beckman Coulter LS 6500 multi-purpose Scintillation counter.
In a volume of 20 μl, 120 μCi/kg of [^3H]-AZT was administered to FVB mice of 20-25 g each. Other FVB mice received the same amount of AZT administered in the presence of AT1002(2 mg/kg). Blood samples were taken at 10 or 15 minutes.
[hu 3H]-Saquinavir (120 μCi/kg) was administered in a 20 μl volume intranasally to FVB mice in the absence or presence of AT1002 (5 mg/kg).
Another data set deals with Caco-2 cell monolayers. The settings on record: ZOT 0.22 to 0.89×10^−10 mol/ml, across Caco-2 cell monolayers; cited from earlier work.
In data set [4] the target is T1, protease activated receptor-2 (PAR-2) receptor (Mus musculus, UniProt P55086).
T1 construct: Intracolonic infusion of a 5 μg dose of the PAR-2 agonist, SLIGRL
T1 sequence (P55086 26-399): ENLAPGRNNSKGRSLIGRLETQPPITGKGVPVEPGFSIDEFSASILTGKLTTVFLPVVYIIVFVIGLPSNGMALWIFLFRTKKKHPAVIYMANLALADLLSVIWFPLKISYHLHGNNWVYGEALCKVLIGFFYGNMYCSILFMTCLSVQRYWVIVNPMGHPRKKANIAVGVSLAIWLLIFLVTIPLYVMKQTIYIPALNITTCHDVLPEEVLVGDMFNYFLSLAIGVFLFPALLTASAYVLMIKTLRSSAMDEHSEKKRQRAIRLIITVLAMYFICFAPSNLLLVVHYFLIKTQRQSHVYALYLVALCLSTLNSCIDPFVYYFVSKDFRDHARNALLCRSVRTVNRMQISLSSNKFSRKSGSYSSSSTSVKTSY
The following applies: intracolonic infusion of a 5 μg dose; cited from earlier work.

The mark [5] stands for this setting: sCT 15 mg/kg intra-nasal with 10 mg/kg of AT1002, p<0.05.

Like-named read-outs stand apart in the source and are kept apart here.

Procedure for in vitro: Caco-2 cells, a human colon adenocarcinoma cell line, were grown as monolayers for 21 days in Dulbecco's Modified Eagle's medium (1X) containing 10% fetal bovine serum, 1% non-essential amino acid solution, 1% penicillin-streptomycin and 2% glutamine at 37° C. in an atmosphere of 5% CO2 and 90% relative humidity. Caco-2 cells from passage numbers of 51 to 52 were seeded on permeable polycarbonate inserts (1 cm^2, 0.4 μm pore size) in 12 Transwell plates at a density of 80,000 cells/cm^2. The inserts were fed with media every other day until they were used for experiments 21 days after the initial seeding. The integrity of the cell monolayers was evaluated by measuring the transepithelial electrical resistance (TEER) values before the study using a Millicell®-ERS meter (Millipore Corp., Bedford, Mass.) with chopstick electrodes. […] The cell monolayers were washed twice with PBS prior to the transport experiments. After the wash, the plates were incubated for 30 min at 37° C., and the integrity of the cell monolayers was evaluated by measurement of TEER. The cell inserts were used in transport experiments when the TEER values reached >300 Ωcm^2.
The insert was moved to a well containing fresh PBS every 10 min for 40 min.
Papp was calculated according to the following equation: […]
The percent enhancement ratio, ER(%), for the Papp was calculated from the formula, […]

What is called Papp is a coefficient for how fast a substance crosses the barrier. The low end stands for slow passage, the high end for fast passage. In “in vitro”, `OC[C@@H](O)[C@@H](O)[C@H](O)[C@H](O)CO` [Mannitol] yielded a Papp of 0.686 ± 0.057 ×10⁻⁶ cm/s.

The Cmax is the peak of the concentration-time curve. In the case of `CC(C)C[C@H](NC(=O)[C@H](CCCCN)NC(=O)CNC(=O)[C@H](CC(C)C)NC(=O)[C@@H](NC(=O)[C@@H]1CSSC[C@H](N)C(=O)N[C@@H](CO)C(=O)N[C@@H](CC(N)=O)C(=O)N[C@@H](CC(C)C)C(=O)N[C@@H](CO)C(=O)N[C@@H]([C@@H](C)O)C(=O)N1)C(C)C)C(=O)N[C@@H](CO)C(=O)N[C@@H](CCC(N)=O)C(=O)N[C@@H](CCC(=O)O)C(=O)N[C@@H](CC(C)C)C(=O)N[C@@H](Cc1c[nH]cn1)C(=O)N[C@@H](CCCCN)C(=O)N[C@@H](CC(C)C)C(=O)N[C@@H](CCC(N)=O)C(=O)N[C@H](C(=O)N[C@@H](Cc1ccc(O)cc1)C(=O)N1CCC[C@H]1C(=O)N[C@@H](CCCNC(=N)N)C(=O)N[C@H](C(=O)N[C@@H](CC(N)=O)C(=O)N[C@H](C(=O)NCC(=O)N[C@@H](CO)C(=O)NCC(=O)N[C@H](C(=O)N1CCC[C@H]1C(N)=O)[C@@H](C)O)[C@@H](C)O)[C@@H](C)O)[C@@H](C)O` [sCT only, Salmon calcitonin], the Tmax in data set [1] (Sprague-Dawley, rat, plasma, inhaled or intranasal, sCT 15 mg/kg intra-nasal alone (control), mean ± SEM, read-out: sCT Tmax (converted)) is 32.5 min; in data set [1] (Sprague-Dawley, rat, plasma, inhaled or intranasal, sCT 15 mg/kg intra-nasal, sCT only (FIG. 7), read-out: Tmax of average plasma concentration profile of sCT (converted)), 30 min. The peak concentration (Cmax) in data set [1] (Sprague-Dawley, rat, plasma, inhaled or intranasal, sCT 15 mg/kg intra-nasal alone (control), mean ± SEM) amounted to 1230 ± 250 ng/mL. In addition, the AUC(0-t) in data set [1] (Sprague-Dawley, rat, plasma, inhaled or intranasal, sCT 15 mg/kg intra-nasal alone (control), mean ± SEM, n=3-5, read-out: sCT AUC0-90 min (converted)) is 997 ng·h/mL.

For the compound H-FCIGRL-OH [AT1002, H-FCIGRL-OH], in data set [2], the “inulin AUC0-360min, increase over control” value is reported as 292% and the “inulin Cmax, increase over control” value worked out at 315%. The “increase of AZT levels in plasma” value in data set [3] ([3H]-AZT 120 μCi/kg intranasal, AT1002 2 mg/kg co-administered, blood at 10 or 15 min, vs AZT alone, p<0.05) is given as “about 33%”. For the same compound, the “increase of saquinavir levels in plasma” value in data set [3] ([3H]-saquinavir 120 μCi/kg intranasal, in presence of AT1002 5 mg/kg vs absence) is “about 51%”. In addition, the “increase of plasma concentration of sCT vs sCT control” value in data set [1] (at 20 min, sCT 15 mg/kg intra-nasal with 10 mg/kg of AT1002, p<0.05) was found to be 1.99 fold. In data set [1] (setting [5]), the “increase in sCT AUC0-90min to sCT control” value turned out to be 1.66 fold and the “increase in sCT Cmax to sCT control” value is on record as 1.67 fold.

Regarding “ZOT: 44.8 kDa protein (399 amino acids) of Vibrio cholerae that reversibly opens tight junctions”, the “enhanced transport of agents of varying molecular weights or low bioavailability” value in the data set on Caco-2 cell monolayers was “up to 30 fold”.

As to SLIGRL, the “increase in the paracellular permeability of [51Cr]-EDTA” value in data set [4] was 2 fold.

The values above are taken from patent publication US20090252672A1, “NASAL DELIVERY OF THERAPEUTIC AGENTS USING TIGHT JUNCTION AGONISTS” (priority 2006, published 2009).
